Test results reported in patent US7495104B2, “Quinoline or quinazoline derivatives inhibiting auto-phosphorylation of fibroblast growth factor receptors” (Kirin Beer Kabushiki Kaisha, priority 2001, dated 2009).
Where a name gives a salt, the structure may show the parent alone.

Target: Bek (Homo sapiens, UniProt P21802)
Assay: Inhibitory activity against Bek-autophosphorylation using ELISA method in OCUM-2MD3 cells
Type: cell-based
Details: 1 hr with compound, read-out: IC50 (concentration necessary for inhibiting 50% of Bek-phosphorylation)
Summary of the method: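 OCUM-2MD3 human scirrhous gastric cancer cells in 0.1% FCS were exposed to compound for 1 hr at 37° C, then lysed. Phospho-tyrosine proteins were captured with anti-phosphotyrosine antibody, probed with anti-Bek antibody and peroxidase read-out (A450). Positive control (1000 nM) set 0%, untreated 100%; IC50 from multi-level dilutions.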

Chain of Bek (P21802 431-767 limits assumed): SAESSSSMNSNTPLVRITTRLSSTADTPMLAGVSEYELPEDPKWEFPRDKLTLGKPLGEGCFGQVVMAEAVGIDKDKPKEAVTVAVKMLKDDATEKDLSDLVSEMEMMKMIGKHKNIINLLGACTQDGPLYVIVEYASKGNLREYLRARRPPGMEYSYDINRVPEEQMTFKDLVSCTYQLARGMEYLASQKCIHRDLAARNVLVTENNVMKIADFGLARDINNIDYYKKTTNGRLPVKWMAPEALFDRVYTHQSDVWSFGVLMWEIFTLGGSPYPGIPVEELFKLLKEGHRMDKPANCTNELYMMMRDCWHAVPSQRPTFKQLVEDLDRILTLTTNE

IC50 | SMILES
151 nM | COc1cc2c(Oc3ccc(NC(=O)NCCC(C)(C)C)cc3)ccnc2cc1OCCN1CCC(Cc2ccccc2)CC1 [Compound 122, 1-(4-{7-[2-(4-Benzyl-piperidin-1-yl)-ethoxy]-6-methoxy-quinolin-4-yloxy}-phenyl)-3-(3,3-dimethyl-butyl)-urea]
< 10 nM | COc1cc2c(Oc3ccc(NC(=O)NCCC(C)(C)C)cc3)ccnc2cc1OCCN1CCC(N2CCCCC2)CC1 [Compound 123, 1-{4-[7-(2-[1,4′]bipiperidineyl-1′-yl-ethoxy)-6-methoxy-quinolin-4-yloxy]-phenyl}-3-(3,3-dimethyl-butyl)-urea]
< 10 nM | COc1cc2c(Oc3ccc(NC(=O)NCCC(C)(C)C)cc3)ccnc2cc1OCCN1CCC(N2CCCC2)CC1 [Compound 124, 1-(3,3-Dimethyl-butyl)-3-(4-{6-methoxy-7-[2-(4-pyrrolidin-1-yl-piperidin-1-yl)-ethoxy]-quinolin-4-yloxy}-phenyl)-urea]
13 nM | COc1cc2c(Oc3ccc(NC(=O)NCCC(C)(C)C)c(Cl)c3)ccnc2cc1OCCN1CC(C)OC(C)C1 (stereo not drawn) [Compound 125, 1-(2-Chloro-4-{7-[2-(2,6-dimethyl-morpholin-4-yl)-ethoxy]-6-methoxy-quinolin-4-yloxy}-phenyl)-3-(3,3-dimethyl-butyl)-urea]
13.3 nM | COc1cc2c(Oc3ccc(NC(=O)NCCC(C)(C)C)cc3Cl)ccnc2cc1OCCN1CCOCC1 [Compound 126, 1-{3-Chloro-4-[6-methoxy-7-(2-morpholin-4-yl-ethoxy)-quinolin-4-yloxy]-phenyl}-3-(3,3-dimethyl-butyl)-urea]
9.4 nM | COc1cc2c(Oc3ccc(NC(=O)NCCC(C)(C)C)cc3Cl)ccnc2cc1OCCN1CC(C)OC(C)C1 (stereo not drawn) [Compound 127, 1-(3-Chloro-4-{7-[2-(2,6-dimethyl-morpholin-4-yl)-ethoxy]-6-methoxy-quinolin-4-yloxy}-phenyl)-3-(3,3-dimethyl-butyl)-urea]
< 10 nM | COc1cc2c(Oc3ccc(NC(=O)NCCC(C)(C)C)cc3F)ccnc2cc1OCCN1CC(C)OC(C)C1 (stereo not drawn) [Compound 128, 1-(3,3-Dimethyl-butyl)-3-(4-{7-[2-(2,6-dimethyl-morpholin-4-yl)-ethoxy]-6-methoxy-quinolin-4-yloxy}-3-fluoro-phenyl)-urea]
48.1 nM | COc1cc2c(Oc3ccc(NC(=O)NCCC(C)(C)C)cc3F)ccnc2cc1OCCN1CCCCC1 [Compound 129, 1-(3,3-Dimethyl-butyl)-3-{3-fluoro-4-[6-methoxy-7-(2-piperidin-1-yl-ethoxy)-quinolin-4-yloxy]-phenyl}-urea]
162 nM | COc1cc2c(Oc3ccc(NC(=O)NCCC(C)(C)C)c(F)c3)ccnc2cc1OCCN1C(C)CCCC1C (stereo not drawn) [Compound 130, 1-(3,3-Dimethyl-butyl)-3-(4-{7-[2-(2,6-dimethyl-piperidin-1-yl)-ethoxy]-6-methoxy-quinolin-4-yloxy}-2-fluoro-phenyl)-urea]
161 nM | COc1cc2c(Oc3ccc(NC(=O)NCCC(C)(C)C)c(F)c3)ccnc2cc1OCCN1C(C)(C)CCCC1(C)C [Compound 131, 1-(3,3-Dimethyl-butyl)-3-(2-fluoro-4-{6-methoxy-7-[2-(2,2,6,6-tetramethyl-piperidin-1-yl)-ethoxy]-quinolin-4-yloxy}-phenyl)-urea]

Continued, compound first:

SMILES | IC50
COc1cc2nccc(Oc3ccc(NC(=O)NC4CC(C)CC(C)(C)C4)c(F)c3)c2cc1OC (stereo not drawn) [Compound 106, 1-[4-(6,7-Dimethoxy-quinolin-4-yloxy)-2-fluoro-phenyl]-3-(3,3,5-trimethyl-cyclohexyl)-urea] | 19.7 nM
COc1cc2nccc(Oc3ccc(NC(=O)NC4CC(C)CC(C)(C)C4)c(Cl)c3)c2cc1OC (stereo not drawn) [Compound 107, 1-[2-Chloro-4-(6,7-dimethoxy-quinolin-4-yloxy)-phenyl]-3-(3,3,5-trimethyl-cyclohexyl)-urea] | < 10 nM
COc1cc2nccc(Oc3ccc(NC(=O)NC4CCCC(C)(C)C4)cc3)c2cc1OC (stereo not drawn) [Compound 108, 1-[4-(6,7-Dimethoxy-quinolin-4-yloxy)-phenyl]-3-(3,3-dimethyl-cyclohexyl)-urea] | < 10 nM
COc1cc2nccc(Oc3ccc(NC(=O)NC4CCCC(C)(C)C4)c(F)c3)c2cc1OC (stereo not drawn) [Compound 109, 1-[4-(6,7-Dimethoxy-quinolin-4-yloxy)-2-fluoro-phenyl]-3-(3,3-dimethyl-cyclohexyl)-urea] | < 10 nM
COc1cc2nccc(Oc3ccc(NC(=O)NC4CCCC(C)(C)C4)c(Cl)c3)c2cc1OC (stereo not drawn) [Compound 110, 1-[2-Chloro-4-(6,7-dimethoxy-quinolin-4-yloxy)-phenyl]-3-(3,3-dimethyl-cyclohexyl)-urea] | < 10 nM
COc1cc2nccc(Oc3ccc(NC(=O)NCCC(C)(C)C)c(F)c3)c2cc1OC [Compound 111, 1-[4-(6,7-Dimethoxy-quinolin-4-yloxy)-2-fluoro-phenyl]-3-(3,3-dimethyl-butyl)-urea] | < 10 nM
COc1cc2c(Oc3ccc(NC(=O)NCCC(C)(C)C)cc3)ccnc2cc1OCCN1CCOCC1 [Compound 112, 1-(3,3-Dimethyl-butyl)-3-{4-[6-methoxy-7-(2-morpholin-4-yl-ethoxy)-quinolin-4-yloxy]-phenyl}-urea hydrochloride] | 52.1 nM
COc1cc2c(Oc3ccc(NC(=O)NCCC(C)(C)C)cc3)ccnc2cc1OCCN1CCN(C)CC1 [Compound 113, 1-(3,3-Dimethyl-butyl)-3-(4-{6-methoxy-7-[2-(4-methyl-piperazin-1-yl)-ethoxy]-quinolin-4-yloxy}-phenyl)-urea hydrochloride] | 10 nM
COc1cc2c(Oc3ccc(NC(=O)NCCC(C)(C)C)c(Cl)c3)ccnc2cc1OCCN1CCN(C)CC1 [Compound 115, 1-(2-Chloro-4-{6-methoxy-7-[2-(4-methyl-piperazin-1-yl)-ethoxy]-quinolin-4-yloxy}-phenyl)-3-(3,3-dimethyl-butyl)-urea] | < 10 nM
COc1cc2c(Oc3ccc(NC(=O)NCCC(C)(C)C)c(Cl)c3)ccnc2cc1OCCN1C[C@@H](C)O[C@@H](C)C1 [Compound 116, 1-(2-Chloro-4-{7-[2-(2,6-dimethyl-morpholin-4-yl)-ethoxy]-6-methoxy-quinolin-4-yloxy}-phenyl)-3-(3,3-dimethyl-butyl)-urea] | 14.4 nM
COc1cc2c(Oc3ccc(NC(=O)NCCC(C)(C)C)c(Cl)c3)ccnc2cc1OCCN1CCC(C)CC1 [Compound 117, 1-(2-Chloro-4-{6-methoxy-7-[2-(4-methyl-piperidin-1-yl)-ethoxy]-quinolin-4-yloxy}-phenyl)-3-(3,3-dimethyl-butyl)-urea] | 178 nM
COc1cc2c(Oc3ccc(NC(=O)NCCC(C)(C)C)cc3)ccnc2cc1OCCN1CC(C)OC(C)C1 (stereo not drawn) [Compound 119, 1-(3,3-Dimethyl-butyl)-3-(4-{7-[2-(2,6-dimethyl-morpholin-4-yl)-ethoxy]-6-methoxy-quinolin-4-yloxy}-phenyl)-urea] | < 10 nM
COc1cc2c(Oc3ccc(NC(=O)NCCC(C)(C)C)cc3)ccnc2cc1OCCN1CC(C)CC(C)C1 (stereo not drawn) [Compound 120, 1-(3,3-Dimethyl-butyl)-3-(4-{7-[2-(3,5-dimethyl-piperidin-1-yl)-ethoxy]-6-methoxy-quinolin-4-yloxy}-phenyl)-urea] | 21 nM
COc1cc2c(Oc3ccc(NC(=O)NCCC(C)(C)C)cc3)ccnc2cc1OCCN1CCC(c2ccccc2)CC1 [Compound 121, 1-(3,3-Dimethyl-butyl)-3-(4-{6-methoxy-7-[2-(4-phenyl-piperidin-1-yl)-ethoxy]-quinolin-4-yloxy}-phenyl)-urea] | 88 nM
